{"source": "patent US20230003717A1", "about": "“USE OF SYNAPTOTAGMIN-7 IN THE DIAGNOSIS AND TREATMENT OF BIPOLAR DISORDER” (TSINGHUA UNIVERSITY, priority 2020, published 2023)", "format_in_all_cases": "in vivo", "key": {"[1]": {"test_system": "Syt7 KO mice", "assay": "forced swim test (FST), Syt7 KO mice", "settings": "30 mg/kg intraperitoneal, night phase and day phase", "experimental": "(§1) The 11 genes in the DG region of the mice were knocked down using shRNA virus. The mice were subject to a forced swim test (FST), and the immobility time of the mice was analyzed. The immobility time is an indicator that reflects the feeling of despair of the mice, and a longer immobility time indicates a more serious feeling of despair. The result is shown in panel C in FIG. 1.\nThe behaviors of Syt7 KO mice (i.e., Syt7-knockout mice) were then examined in the FST test.\nSyt7 KO mice were first treated with the atypical antipsychotic olanzapine (OLZ) and observed for the dose dependence (administered with doses of 0.2 mg/kg, 0.5 mg/kg and 1.0 mg/kg) (using ANOVA statistical method). […] Without being limited by theory, this may be associated with an antidepressant effect of olanzapine in treating BD patients.\n(§2) The effect of clinical BD treatment lithium on behavioral abnormalities in Syt7 KO mice was then tested."}, "[2]": {"test_system": "WT mice", "assay": "forced swim test (FST), WT mice", "settings": "30 mg/kg intraperitoneal, night phase and day phase", "experimental": "as §1, §2"}, "[3]": {"test_system": "Syt7 KO mice", "assay": "learned helplessness (LH) test, Syt7 KO mice", "settings": "30 mg/kg intraperitoneal, night phase and day phase, vs untreated control", "experimental": "(§3) Considering that the FST/TS tests can not represent all the characterizations of human disease, a learned helplessness (LH) test and a sucrose preference test (SPT) were conducted. LH is associated with depression. In the LH test, the escape failure number of mice is an indicator for determining the depression of animal due to external pressure. A higher escape failure number indicates a more significant depression. SPT is associated with anhedonia. The proportion of sucrose preference of the mice can serve as an indicator for determining the anhedonia severity of the mice. A higher proportion of sweet preference indicates an enhancement in hedonic feeling.\n(§4) Then, the LH/SPT/LDB behavioral paradigms were adopted for detecting the effect of high-dose olanzapine treatment (1.0 mg/kg) on abnormal behaviors of the Syt7 KO mice.\nas §2"}, "[4]": {"test_system": "WT mice", "assay": "learned helplessness (LH) test, WT mice", "settings": "30 mg/kg intraperitoneal, night phase and day phase, vs untreated control", "experimental": "as §3, §4, §2"}, "[5]": {"test_system": "Syt7 KO mice", "assay": "sucrose preference test (SPT), Syt7 KO mice", "settings": "30 mg/kg intraperitoneal, night phase and day phase, vs untreated control", "experimental": "as §3, §4, §2"}, "[6]": {"test_system": "WT mice", "assay": "sucrose preference test (SPT), WT mice", "settings": "30 mg/kg intraperitoneal, night phase and day phase, vs untreated control", "experimental": "as §3, §4, §2"}, "[7]": {"test_system": "Syt7 KO mice", "assay": "light-dark box (LDB) test, Syt7 KO mice", "settings": "30 mg/kg intraperitoneal, night phase and day phase", "experimental": "(§5) Since BD patients often had clinical symptoms of anxiety, a light-dark box (LDB) test was conducted to observe anxiety-like behaviors in the Syt7 KO mice.\nas §4, §2"}, "[8]": {"test_system": "WT mice", "assay": "light-dark box (LDB) test, WT mice", "settings": "30 mg/kg intraperitoneal", "experimental": "as §5, §4, §2"}}, "data": [{"smiles": "O=C([O-])[O-].[Li+].[Li+]", "note": "[Li2CO3]", "values": [{"measurement": "immobility time in FST", "setting": "[1]", "result": "no effect"}, {"measurement": "immobility time in FST", "setting": "[2]", "result": "no effect"}, {"measurement": "escape numbers in LH test", "setting": "[3]", "result": "increased escape numbers"}, {"measurement": "escape numbers in LH test", "setting": "[4]", "result": "increased escape numbers"}, {"measurement": "sucrose preference (SPT)", "setting": "[5]", "result": "decreased sucrose preference"}, {"measurement": "sucrose preference (SPT)", "setting": "[6]", "result": "decreased sucrose preference"}, {"measurement": "time spent in the light compartment in the LDB test", "setting": "[7]", "result": "reducing the time spent in the light compartment"}, {"measurement": "time spent in the light compartment in the LDB test", "setting": "[8]", "result": "no effect on WT"}]}]}
